Article PMC8375990, “The flavin monooxygenase Bs3 triggers cell death in plants, impairs growth in yeast and produces H2O2 in vitro” (PLoS ONE, 2021)

Key:
Bs3 [1] = target: T1, Bs3 (Capsicum annuum, UniProt A8TVP6, S211A); test: UV-vis spectrum of purified protein; type: binding; details: FAD added to lysis buffer; co-purified
T1 construct: gene T459_32270; Gateway recombination site and the two N-terminal methionines deleted

Bs3 [2] = target: T2, Bs3 (Capsicum annuum, UniProt A8TVP6); test: UV-vis spectrum of purified protein; type: binding; details: FAD added to lysis buffer; co-purified
T2 construct: gene T459_32270; Gateway recombination site and the two N-terminal methionines deleted
T2 sequence (A8TVP6 3-342): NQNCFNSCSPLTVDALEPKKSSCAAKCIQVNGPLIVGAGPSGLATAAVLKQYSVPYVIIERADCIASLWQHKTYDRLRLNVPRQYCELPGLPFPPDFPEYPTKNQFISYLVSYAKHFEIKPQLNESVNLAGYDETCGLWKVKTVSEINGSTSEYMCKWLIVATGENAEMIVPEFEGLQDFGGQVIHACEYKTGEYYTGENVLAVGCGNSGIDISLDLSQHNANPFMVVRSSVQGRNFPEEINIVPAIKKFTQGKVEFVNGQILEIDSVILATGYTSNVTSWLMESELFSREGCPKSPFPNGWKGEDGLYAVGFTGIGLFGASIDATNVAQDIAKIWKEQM

Bs3 [3] = target: T2, Bs3; test: NADPH oxidation, decrease of absorbance at […] nm; type: biochemical

T1 sequence (A8TVP6 entry or part of it S211A): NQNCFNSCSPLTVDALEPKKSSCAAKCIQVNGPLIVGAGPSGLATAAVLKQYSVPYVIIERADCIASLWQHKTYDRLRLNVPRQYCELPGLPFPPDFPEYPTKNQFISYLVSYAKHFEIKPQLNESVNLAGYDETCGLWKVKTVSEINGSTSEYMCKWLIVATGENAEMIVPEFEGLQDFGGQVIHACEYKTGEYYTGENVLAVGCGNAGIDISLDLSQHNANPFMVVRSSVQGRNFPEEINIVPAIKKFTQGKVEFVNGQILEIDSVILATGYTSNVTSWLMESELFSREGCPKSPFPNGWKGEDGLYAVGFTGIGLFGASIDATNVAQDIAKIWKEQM

SMILES | UV-vis spectrum of purified protein (Bs3 [1]) | UV-vis spectrum of purified protein (Bs3 [2]) | inhibition at 50 µM (Bs3 [3])
Cc1cc2nc3c(=O)[nH]c(=O)nc-3n(C[C@H](O)[C@H](O)[C@H](O)COP(=O)(O)OP(=O)(O)OC[C@H]3O[C@@H](n4cnc5c(N)ncnc54)[C@H](O)[C@@H]3O)c2cc1C [FAD] | purified Bs3 and Bs3S211A proteins were bright yellow and the UV-vis spectra show characteristic peaks | purified Bs3 and Bs3S211A proteins were bright yellow and the UV-vis spectra show characteristic peaks | 
Cn1cc[nH]c1=S [methimazole] |  |  | 79%
Sc1nnc(-c2ccc(Cl)cc2)[nH]1 [yucasin] |  |  | 95%
